Common to all, as to format: functional
A short description of experiment [1]: Antioxidant activity assessed as Trolox equivalents of photolysis-induced hydroxyl radical scavenging activity using DMPO spin trap by ESR spectroscopic method.
Experiment [2] in a line: Antioxidant activity assessed as Trolox equivalents of photolysis-induced methyl radical scavenging activity using DMPO spin trap by ESR spectroscopic method.
The nature of experiment [3]: Antioxidant activity assessed as Trolox equivalents of photolysis-induced alkoxyl scavenging activity using DMPO spin trap by ESR spectroscopic method.
A short description of experiment [4]: Antioxidant activity assessed as Trolox equivalents of photolysis-induced peroxyl scavenging activity using CYPMPO spin trap by ESR spectroscopic method.
The nature of experiment [5]: Antioxidant activity assessed as Trolox equivalents of photolysis-induced superoxide anion scavenging activity using CYPMPO spin trap by ESR spectroscopic method.
A short description of experiment [6]: Antioxidant activity assessed as Trolox equivalents of photolysis-induced singlet oxygen scavenging activity using 4-HO-TEMP spin trap by ESR spectroscopic method.
The nature of experiment [7]: Antioxidant activity assessed as relative scavenging rate constant for photolysis-induced hydroxyl radical scavenging activity by measuring Kaox/Kst ratio using DMPO spin trap by ESR spectroscopic method.
The nature of experiment [8]: Antioxidant activity assessed as relative scavenging rate constant for photolysis-induced methyl radical scavenging activity by measuring Kaox/Kst ratio using DMPO spin trap by ESR spectroscopic method.
Experiment [9] in a line: Antioxidant activity assessed as relative scavenging rate constant for photolysis-induced alkoxyl scavenging activity by measuring Kaox/Kst ratio using DMPO spin trap by ESR spectroscopic method.
A short description of experiment [10]: Antioxidant activity assessed as relative scavenging rate constant for photolysis-induced peroxyl scavenging activity by measuring Kaox/Kst ratio using CYPMPO spin trap by ESR spectroscopic method.
Experiment [11] is described as follows: Antioxidant activity assessed as relative scavenging rate constant for photolysis-induced super-oxide anion scavenging activity by measuring Kaox/Kst ratio using CYPMPO spin trap by ESR spectroscopic method.
The nature of experiment [12]: Antioxidant activity assessed as relative scavenging rate constant for photolysis-induced singlet oxygen scavenging activity by measuring Kaox/Kst ratio using 4-HO-TEMP spin trap by ESR spectroscopic method.
Experiment [13] is described as follows: Antioxidant activity assessed as rate constant for photolysis-induced methyl radical scavenging activity using DMPO spin trap by ESR spectroscopic method.
Experiment [14] is described as follows: Antioxidant activity assessed as rate constant for singlet oxygen scavenging activity in aqueous solution by EPR spectroscopic method.
Experiment [15] in a line: Antioxidant activity assessed as rate constant for singlet oxygen scavenging activity in methanol solution by EPR spectroscopic method.
Experiment [16] is described as follows: Antioxidant activity assessed as rate constant for singlet oxygen scavenging activity in ethanol-water (1:1 v/v) mixture using phosphorescence-based single-photon-counting method.

Regarding `Oc1cc(O)cc(/C=C/c2ccc(O)c(O)c2)c1`, the Activity in [1] stood at 2.78 equiv; in experiment [2], 0.11 equiv; in experiment [3] it was 0.36 equiv; in experiment [4], 7.7 equiv; in experiment [5], 1.86 equiv; in experiment [6] it was 7 equiv. For the same compound, the Ratio in experiment [7] is 88.8; in experiment [8], 5.65; in experiment [9], 41.2; in [10], 218; in experiment [11], 156; in experiment [12], 16600. The K in [13] is 7.9 ×10⁷ /M/s.
With `COc1cc(/C=C/c2ccc(O)cc2)cc(OC)c1`, the Activity is 0.47 equiv in experiment [1]; -0 equiv in [2]; 0.11 equiv in experiment [3]; 0.88 equiv in [4]; 0.42 equiv in [5]; 2 equiv in experiment [6]. The Ratio was 14.9 in experiment [7]; -0 in experiment [8]; 13 in experiment [9]; 24.8 in experiment [10]; 35.6 in experiment [11]; 4610 in [12].
For the compound `COc1cc(/C=C/c2ccc(OC)c(OC)c2)cc(OC)c1`, the Activity in experiment [1] was 0.8 equiv; in experiment [2] it was -0 equiv; in experiment [3], 0.21 equiv; in experiment [4], 0.3 equiv; in [5] it was -0 equiv; in experiment [6], 0.11 equiv. Further, the Ratio in experiment [7] was 25.6; in experiment [8] it was -0; in experiment [9] it was 24.4; in [10] it was 8.52; in experiment [11] it was -0; in experiment [12], 268.
`Oc1ccc(/C=C/c2cc(O)cc(O)c2)cc1`: the Activity in [1] is 0.5 equiv; in [2] it was -0 equiv; in experiment [3] it was 0.2 equiv; in experiment [4], 0.69 equiv; in experiment [5] it was 0.4 equiv; in experiment [6], 3 equiv. For the same compound, the Ratio in [7] was 15.8; in [8], -0; in experiment [9], 23.3; in [10] it was 19.6; in experiment [11], 33.4; in experiment [12] it was 7080. Besides, the K in [14] was determined as 3.92 ×10⁹ /M/s; in experiment [15], 2.55 ×10⁷ /M/s.
On to `Oc1cc(O)cc(/C=C/c2ccc(O)cc2O)c1`, for which the Activity in [1] was 0.68 equiv; in experiment [2], 0.08 equiv; in [3], 0.17 equiv; in [4] it was 0.67 equiv; in experiment [5], 0.45 equiv; in experiment [6], 3.4 equiv. Further, the Ratio in experiment [7] was determined as 21.8; in [8] it was 3.98; in [9] it was 19; in experiment [10], 18.9; in experiment [11], 37.4; in experiment [12], 7960.
Regarding `COc1ccc(/C=C/c2cc(O)cc(O)c2)cc1O`, the Activity in experiment [1] was determined as 0.71 equiv; in experiment [2], 0.04 equiv; in experiment [3] it was 0.1 equiv; in experiment [4], 0.71 equiv; in experiment [5] it was 0.84 equiv; in experiment [6], 3.7 equiv. In addition, the Ratio was 22.6 in experiment [7]; 2.21 in experiment [8]; 11.9 in experiment [9]; 21.1 in experiment [10]; 70.5 in [11]; 8780 in [12]. In [13], the K is 3.1 ×10⁷ /M/s.
Take `Cc1c(C)c2c(c(C)c1O)CCC(C)(C(=O)O)O2` (centres undefined): the Ratio in experiment [7] was determined as 31.9; in [8], 50; in experiment [9] it was 115; in experiment [10] it was 28.3; in experiment [11], 83.9; in experiment [12] it was 2360. The K in [16] worked out at 6.22 ×10⁷ /M/s; in experiment [13], 7 ×10⁸ /M/s.

The values are drawn from ChEMBL document CHEMBL4184155, “Resveratrol analogues like piceatannol are potent antioxidants as quantitatively demonstrated through the high scavenging ability against reactive oxygen species and methyl radical” (Bioorg Med Chem Lett, 2017).
